Results from ChEMBL document CHEMBL3525902, “In vitro metabolism of oxymetazoline: evidence for bioactivation to a reactive metabolite” (Drug Metab Dispos, 2011).

How the values were obtained:
[1] = Drug metabolism in NADPH supplemented human liver S9 fraction assessed as 3-((1H-imidazol-2-yl)methyl)-6-(1-hydroxy-2-methylpropan-2-yl)-2,4-dimethylphenol formation at 50 uM in presence of glutathione by LC-MS/MS method; type: ADME, subcellular; conditions: s9, 50 µM
Cytochrome P450 1A2 = biological target: T1, Cytochrome P450 1A2 (Homo sapiens, UniProt P05177); assay: Activity of human recombinant CYP1A2 assessed as metabolite formation at 50 uM in presence of NADPH by LC-MS/MS method; type: ADME; conditions: recombinant enzyme
T1 sequence (P05177 whole entry): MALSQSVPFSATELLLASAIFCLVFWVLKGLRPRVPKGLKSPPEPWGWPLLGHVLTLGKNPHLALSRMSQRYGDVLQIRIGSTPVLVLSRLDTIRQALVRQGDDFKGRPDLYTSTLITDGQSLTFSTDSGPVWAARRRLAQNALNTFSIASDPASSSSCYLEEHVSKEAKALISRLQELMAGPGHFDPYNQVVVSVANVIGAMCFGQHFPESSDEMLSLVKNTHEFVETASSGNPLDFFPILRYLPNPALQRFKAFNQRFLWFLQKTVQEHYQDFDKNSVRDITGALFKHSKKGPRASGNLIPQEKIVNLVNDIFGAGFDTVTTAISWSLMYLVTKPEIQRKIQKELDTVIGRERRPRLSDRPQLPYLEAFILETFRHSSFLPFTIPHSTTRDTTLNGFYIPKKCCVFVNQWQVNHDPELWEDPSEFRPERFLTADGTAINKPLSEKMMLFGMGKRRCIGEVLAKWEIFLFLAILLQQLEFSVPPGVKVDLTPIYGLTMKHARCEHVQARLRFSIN

Cytochrome P450 2B6 = biological target: T2, Cytochrome P450 2B6 (Homo sapiens, UniProt P20813); assay: Activity of human recombinant CYP2B6 assessed as metabolite formation at 50 uM in presence of NADPH by LC-MS/MS method; type: ADME; conditions: recombinant enzyme
T2 sequence (P20813 whole entry): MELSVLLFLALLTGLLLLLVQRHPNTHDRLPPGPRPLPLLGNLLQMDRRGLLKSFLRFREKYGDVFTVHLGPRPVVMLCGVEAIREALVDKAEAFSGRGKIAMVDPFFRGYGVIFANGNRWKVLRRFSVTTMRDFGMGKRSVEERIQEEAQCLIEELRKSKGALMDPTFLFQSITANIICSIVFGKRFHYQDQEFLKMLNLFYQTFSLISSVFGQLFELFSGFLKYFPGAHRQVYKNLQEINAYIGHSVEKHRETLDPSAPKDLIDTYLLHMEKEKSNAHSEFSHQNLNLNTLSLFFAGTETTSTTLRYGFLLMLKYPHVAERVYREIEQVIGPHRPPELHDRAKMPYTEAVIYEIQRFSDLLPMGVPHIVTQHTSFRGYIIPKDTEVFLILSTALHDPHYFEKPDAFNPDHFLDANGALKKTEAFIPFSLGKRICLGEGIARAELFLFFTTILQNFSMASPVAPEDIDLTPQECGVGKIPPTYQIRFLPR

Cytochrome P450 2C19 [2] = biological target: T3, Cytochrome P450 2C19 (Homo sapiens, UniProt P33261); assay: Activity of human recombinant CYP2C19 assessed as 3-((1H-imidazol-2-yl)methyl)-6-tert-butyl-2,4-dimethylphenol formation at 50 uM in presence of NADPH by LC-MS/MS method; type: ADME; conditions: recombinant enzyme
Liver microsome [3] = assay: Drug metabolism in NADPH supplemented rat liver microsomes fraction assessed as 3-((4,5-dihydro-1H-imidazol-2-yl)methyl)-6-(1-hydroxy-2-methylpropan-2-yl)-2,4-dimethylphenol formation at 50 uM after 1 hr by LC-MS/MS method; type: ADME
[4] = Drug metabolism in NADPH supplemented rabbit liver S9 fraction assessed as 3-((1H-imidazol-2-yl)methyl)-6-(1-hydroxy-2-methylpropan-2-yl)-2,4-dimethylphenol formation at 50 uM in presence of glutathione by LC-MS/MS method; type: ADME, subcellular, Oryctolagus cuniculus; conditions: s9, 50 µM
Cytochrome P450 2C19 [5] = biological target: T3, Cytochrome P450 2C19; assay: Activity of human recombinant CYP2C19 assessed as 3-((4,5-dihydro-1H-imidazol-2-yl)methyl)-6-(1-hydroxy-2-methylpropan-2-yl)-2,4-dimethylphenol formation at 50 uM in presence of NADPH by LC-MS/MS method; type: ADME; conditions: recombinant enzyme
Cytochrome P450 3A4 = Cytochrome P450 3A4 (Homo sapiens, UniProt P08684); assay: Activity of human recombinant CYP3A4 assessed as metabolite formation at 50 uM in presence of NADPH by LC-MS/MS method; type: ADME; conditions: recombinant enzyme
[6] = Drug level in NADPH supplemented rabbit liver S9 fraction treated with 50 uM oxymetazoline assessed as compound-N-acetyl cysteine conjugate formation in presence of N-acetyl cysteine by LC-MS/MS method; type: ADME, subcellular, Oryctolagus cuniculus
Cytochrome P450 2C8 = biological target: T4, Cytochrome P450 2C8 (Homo sapiens, UniProt P10632); assay: Activity of human recombinant CYP2C8 assessed as metabolite formation at 50 uM in presence of NADPH by LC-MS/MS method; type: ADME; conditions: recombinant enzyme
T4 sequence (P10632 whole entry): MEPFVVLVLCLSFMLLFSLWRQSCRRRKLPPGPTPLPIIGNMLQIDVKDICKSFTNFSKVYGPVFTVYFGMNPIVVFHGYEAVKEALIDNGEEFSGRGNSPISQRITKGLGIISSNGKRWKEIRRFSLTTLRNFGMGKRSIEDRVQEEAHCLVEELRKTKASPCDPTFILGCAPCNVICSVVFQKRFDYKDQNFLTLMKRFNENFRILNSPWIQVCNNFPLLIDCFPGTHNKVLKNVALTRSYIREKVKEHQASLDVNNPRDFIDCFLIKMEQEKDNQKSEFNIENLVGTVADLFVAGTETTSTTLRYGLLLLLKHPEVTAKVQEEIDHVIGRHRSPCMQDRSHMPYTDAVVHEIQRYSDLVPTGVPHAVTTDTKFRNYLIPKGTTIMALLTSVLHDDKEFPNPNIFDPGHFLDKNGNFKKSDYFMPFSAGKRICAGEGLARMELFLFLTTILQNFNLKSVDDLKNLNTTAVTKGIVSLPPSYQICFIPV

Cytochrome P450 2C19 [7] = biological target: T3, Cytochrome P450 2C19; assay: Activity of human recombinant CYP2C19 assessed as 3-((1H-imidazol-2-yl)methyl)-6-(1-hydroxy-2-methylpropan-2-yl)-2,4-dimethylphenol formation at 50 uM in presence of NADPH by LC-MS/MS method; type: ADME; conditions: recombinant enzyme
Cytochrome P450 2C19 [8] = biological target: T3, Cytochrome P450 2C19; assay: Activity of human recombinant CYP2C19 assessed as (S)-2-amino-5-((R)-3-(5-tert-butyl-2-((4,5-dihydro-1H-imidazol-2-yl)methyl)-4-hydroxy-3-methylbenzylthio)-1-(carboxymethylamino)-1-oxopropan-2-ylamino)-5-oxopentanoic acid formation at 50 uM in presence of NADPH and glutathione by LC-MS/MS method; type: ADME; conditions: recombinant enzyme
Liver microsome [9] = assay: Drug metabolism in NADPH supplemented rat liver microsomes fraction assessed as 3-((1H-imidazol-2-yl)methyl)-6-(1-hydroxy-2-methylpropan-2-yl)-2,4-dimethylphenol formation at 50 uM after 1 hr by LC-MS/MS method; type: ADME
Cytochrome P450 2C9 = Cytochrome P450 2C9 (Homo sapiens, UniProt P11712); assay: Activity of human recombinant CYP2C9 assessed as metabolite formation at 50 uM in presence of NADPH by LC-MS/MS method; type: ADME; conditions: recombinant enzyme
Sequence of Cytochrome P450 2C9 (P11712 whole entry): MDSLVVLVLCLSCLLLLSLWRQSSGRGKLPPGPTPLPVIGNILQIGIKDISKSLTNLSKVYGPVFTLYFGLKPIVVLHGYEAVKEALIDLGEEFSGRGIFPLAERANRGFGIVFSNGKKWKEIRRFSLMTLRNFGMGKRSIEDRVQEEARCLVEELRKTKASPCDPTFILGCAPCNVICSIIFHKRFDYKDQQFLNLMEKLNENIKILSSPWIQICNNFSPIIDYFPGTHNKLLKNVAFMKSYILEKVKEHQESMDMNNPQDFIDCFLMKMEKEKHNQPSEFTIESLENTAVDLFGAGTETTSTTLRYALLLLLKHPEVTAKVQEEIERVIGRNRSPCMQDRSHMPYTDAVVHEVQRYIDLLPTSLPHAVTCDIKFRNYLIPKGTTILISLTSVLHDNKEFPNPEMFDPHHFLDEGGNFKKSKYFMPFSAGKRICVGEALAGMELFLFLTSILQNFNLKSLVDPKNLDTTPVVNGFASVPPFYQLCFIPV

T3 sequence (P33261 whole entry): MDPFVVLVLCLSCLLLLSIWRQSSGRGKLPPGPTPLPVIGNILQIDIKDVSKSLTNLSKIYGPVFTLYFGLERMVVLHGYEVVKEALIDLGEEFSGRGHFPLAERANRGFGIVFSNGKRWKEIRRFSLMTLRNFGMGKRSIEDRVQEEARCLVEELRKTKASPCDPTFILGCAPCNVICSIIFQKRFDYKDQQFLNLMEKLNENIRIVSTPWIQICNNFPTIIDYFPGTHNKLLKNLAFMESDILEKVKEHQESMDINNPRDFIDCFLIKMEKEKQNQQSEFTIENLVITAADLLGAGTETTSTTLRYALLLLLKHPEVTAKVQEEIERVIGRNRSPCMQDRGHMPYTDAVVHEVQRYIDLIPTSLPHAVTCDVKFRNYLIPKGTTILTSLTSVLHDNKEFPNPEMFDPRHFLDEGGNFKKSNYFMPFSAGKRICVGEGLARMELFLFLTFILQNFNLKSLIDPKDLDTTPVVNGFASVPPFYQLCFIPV
Sequence of Cytochrome P450 3A4 (P08684 whole entry): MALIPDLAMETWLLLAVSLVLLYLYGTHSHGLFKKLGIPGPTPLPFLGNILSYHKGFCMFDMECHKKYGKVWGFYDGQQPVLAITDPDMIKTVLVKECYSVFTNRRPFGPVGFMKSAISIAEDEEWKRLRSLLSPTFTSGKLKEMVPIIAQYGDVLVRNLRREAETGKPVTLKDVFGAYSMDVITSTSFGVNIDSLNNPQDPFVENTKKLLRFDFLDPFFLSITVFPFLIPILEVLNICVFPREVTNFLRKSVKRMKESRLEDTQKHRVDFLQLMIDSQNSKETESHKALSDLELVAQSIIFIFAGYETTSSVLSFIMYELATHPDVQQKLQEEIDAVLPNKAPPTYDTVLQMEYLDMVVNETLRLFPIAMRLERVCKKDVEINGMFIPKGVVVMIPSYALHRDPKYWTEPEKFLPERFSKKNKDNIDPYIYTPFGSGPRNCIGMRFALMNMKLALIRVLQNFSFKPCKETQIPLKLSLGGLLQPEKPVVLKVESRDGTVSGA

SMILES: Cc1cc(C(C)(C)C)c(O)c(C)c1CC1=NCCN1 [OXYMETAZOLINE]
- Drug metabolism [1]: metabolite_detected
- Drug metabolism (Cytochrome P450 1A2): metabolite_not_detected
- Drug metabolism (Cytochrome P450 2B6): metabolite_not_detected
- Drug metabolism (Cytochrome P450 2C19 [2]): metabolite_detected
- Drug metabolism (Liver microsome [3]): metabolite_detected
- Drug metabolism [4]: metabolite_detected
- Drug metabolism (Cytochrome P450 2C19 [5]): metabolite_detected
- Drug metabolism (Cytochrome P450 3A4): metabolite_not_detected
- Drug metabolism [6]: metabolite_detected
- Drug metabolism (Cytochrome P450 2C8): metabolite_not_detected
- Drug metabolism (Cytochrome P450 2C19 [7]): metabolite_detected
- Drug metabolism (Cytochrome P450 2C19 [8]): metabolite_detected
- Drug metabolism (Liver microsome [9]): metabolite_detected
- Drug metabolism (Cytochrome P450 2C9): metabolite_not_detected
